Results published in PubChem BioAssay AID330 (DTP/NCI, 2004).
Values joined by “and” are separate entries in the source; they are usually repeats but may differ in a detail not shown here. Equal entries are not always repeated. Toxic doses and inconclusive results are not listed. How the source made its calls: active means survival T/C of 150% or more; inactive means T/C below 125% in these data.

Test system: P388 leukemia ip, CD2F1 mice, survival T/C
Assay: NCI In Vivo Anticancer Drug Screen. Data for tumor model P388 Leukemia (intraperitoneal) in CD2F1 (CDF1) mice
Conditions: endpoint: median survival time, higher = longer survival
How it was run: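 Mice carrying the transplanted tumor received test compound or vehicle. Survival was recorded in each group, and the value is the treated-group measurement divided by that of the vehicle-treated control group.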

[1] = dose: 50.0 mg/kg/injection, schedule: Q01DX005 (ip), vehicle: Klucel (hydroxypropylcellulose) (HPC)
[2] = dose: 100.0 mg/kg/injection, schedule: Q01DX005 (ip), vehicle: Klucel (hydroxypropylcellulose) (HPC)
[3] = dose: 200.0 mg/kg/injection, schedule: Q01DX005 (ip), vehicle: Klucel (hydroxypropylcellulose) (HPC)
[4] = dose: 6.25 mg/kg/injection, schedule: Q01DX009 (ip), vehicle: Klucel (hydroxypropylcellulose) (HPC)
[5] = dose: 12.5 mg/kg/injection, schedule: Q01DX009 (ip), vehicle: Klucel (hydroxypropylcellulose) (HPC)
[6] = dose: 25.0 mg/kg/injection, schedule: Q01DX009 (ip), vehicle: Klucel (hydroxypropylcellulose) (HPC)
[7] = dose: 50.0 mg/kg/injection, schedule: Q01DX005 (ip), vehicle: saline with Tween-80
[8] = dose: 100.0 mg/kg/injection, schedule: Q01DX005 (ip), vehicle: saline with Tween-80
[9] = dose: 200.0 mg/kg/injection, schedule: Q01DX005 (ip), vehicle: saline with Tween-80
[10] = dose: 60.0 mg/kg/injection, schedule: Q01DX005 (ip), vehicle: saline
[11] = dose: 120.0 mg/kg/injection, schedule: Q01DX005 (ip), vehicle: saline
[12] = dose: 100.0 mg/kg/injection, schedule: Q01DX001 (ip), vehicle: saline
[13] = dose: 200.0 mg/kg/injection, schedule: Q01DX001 (ip), vehicle: saline
[14] = dose: 400.0 mg/kg/injection, schedule: Q01DX001 (ip), vehicle: saline

Measured: T/C

COc1ccc(-c2cc(-c3ccccc3)cc(-c3ccc(OC)cc3)n2)cc1
inactive: [1] 98 % of control | [2] 94 % of control | [3] 92 % of control

CCOC(=O)Nc1ccc2nc(N3CCCCCC3)sc2c1
inactive: dose: 50.0 mg/kg/injection, schedule: Q01DX009 (ip), vehicle: saline with Tween-80 101 % of control | dose: 100.0 mg/kg/injection, schedule: Q01DX009 (ip), vehicle: saline with Tween-80 100 % of control | dose: 200.0 mg/kg/injection, schedule: Q01DX009 (ip), vehicle: saline with Tween-80 102 % of control

C1=NC(C2CC2)c2ccc3c([nH]c4ccccc43)c2N1 (stereo not drawn)
inactive: dose: 100.0 mg/kg/injection, schedule: Q04DX002 (ip), vehicle: Klucel (hydroxypropylcellulose) (HPC) 101 % of control | dose: 200.0 mg/kg/injection, schedule: Q04DX002 (ip), vehicle: Klucel (hydroxypropylcellulose) (HPC) 90 % of control

O=P(c1ccccc1)(c1ccccc1)c1ccccc1.O=P(c1ccccc1)(c1ccccc1)c1ccccc1.O=P(c1ccccc1)(c1ccccc1)c1ccccc1.O=P(c1ccccc1)(c1ccccc1)c1ccccc1.[O-][Cl+3]([O-])([O-])O.[O]=[U+2]=[O]
inactive: dose: 6.25 mg/kg/injection, schedule: Q01DX009 (ip), vehicle: saline with Tween-80 88 % of control | dose: 12.5 mg/kg/injection, schedule: Q01DX009 (ip), vehicle: saline with Tween-80 90 % of control

Cc1ccccc1-[n+]1noc(N)n1
inactive: dose: 3.13 mg/kg/injection, schedule: Q01DX009 (ip), vehicle: water 101 % of control | dose: 6.25 mg/kg/injection, schedule: Q01DX009 (ip), vehicle: water 113 % of control | dose: 12.5 mg/kg/injection, schedule: Q01DX009 (ip), vehicle: water 120 % of control | dose: 14.7 mg/kg/injection, schedule: Q01DX009 (ip), vehicle: water 106 % of control

C=C1C(=O)OC2CC1C(O)C/C(C)=C/CC/C(C)=C/C(O)CC2C (stereo not drawn)
inactive: [4] 104 % of control | [5] 110 % of control | [6] 104 % of control and 112 % of control

CN(CCOC(N)=O)CCOC(N)=O
inactive: dose: 60.0 mg/kg/injection, schedule: Q01DX005 (ip), vehicle: saline with Tween-80 92 % of control | dose: 120.0 mg/kg/injection, schedule: Q01DX005 (ip), vehicle: saline with Tween-80 97 % of control | dose: 240.0 mg/kg/injection, schedule: Q01DX005 (ip), vehicle: saline with Tween-80 95 % of control

C1CNC2NCCNC2N1 (stereo not drawn)
inactive: dose: 25.0 mg/kg/injection, schedule: Q01DX009 (ip), vehicle: saline 118 % of control

C=CSS/C(=C/N(C=O)Cc1cnc(C)nc1N)CCO
inactive: dose: 25.0 mg/kg/injection, schedule: Q01DX005 (ip), vehicle: Klucel (hydroxypropylcellulose) (HPC) 108 % of control | [1] 108 % of control | [2] 102 % of control | [3] 117 % of control

CCCCC1C(C#N)C(=O)NC(=O)C1C#N (stereo not drawn)
inactive: dose: 50.0 mg/kg/injection, schedule: Q01DX009 (ip), vehicle: Klucel (hydroxypropylcellulose) (HPC) 100 % of control | dose: 100.0 mg/kg/injection, schedule: Q01DX009 (ip), vehicle: Klucel (hydroxypropylcellulose) (HPC) 95 % of control | dose: 200.0 mg/kg/injection, schedule: Q01DX009 (ip), vehicle: Klucel (hydroxypropylcellulose) (HPC) 99 % of control

NNC(=O)c1c(O)ccc2ccccc12
inactive: [7] 95 % of control | [8] 93 % of control | [9] 100 % of control

CCN(CC)CCNc1ccccc1
inactive: [10] 99 % of control | [11] 99 % of control

CC(C)(C)C(=O)CC(=O)C(F)(F)C(F)(F)C(F)(F)F.CC(C)(C)C(=O)CC(=O)C(F)(F)C(F)(F)C(F)(F)F.CC(C)(C)C(=O)CC(=O)C(F)(F)C(F)(F)C(F)(F)F.[Eu]
inactive: dose: 60.0 mg/kg/injection, schedule: Q01DX005 (ip), vehicle: Klucel + Tween-80 99 % of control | dose: 120.0 mg/kg/injection, schedule: Q01DX005 (ip), vehicle: Klucel + Tween-80 98 % of control | dose: 240.0 mg/kg/injection, schedule: Q01DX005 (ip), vehicle: Klucel + Tween-80 98 % of control

c1ncc2n[pH]nc2n1 (stereo not drawn)
inactive: [10] 95 % of control | [11] 101 % of control | dose: 240.0 mg/kg/injection, schedule: Q01DX005 (ip), vehicle: saline 96 % of control

Cc1cccn2cc(CC(=O)O)nc12
inactive: [12] 105 % of control | [13] 104 % of control | [14] 109 % of control

Cc1ccccc1N=Nc1ccc(N=Nc2ccc(N)nc2N)c(C)c1
inactive: [7] 104 % of control | [8] 110 % of control | [9] 99 % of control

ClC(Cl)CN(Cc1ccccc1)c1ncc[nH]1
inactive: dose: 6.25 mg/kg/injection, schedule: Q01DX001 (ip), vehicle: saline 105 % of control | dose: 12.5 mg/kg/injection, schedule: Q01DX001 (ip), vehicle: saline 104 % of control | dose: 25.0 mg/kg/injection, schedule: Q01DX001 (ip), vehicle: saline 105 % of control

Cc1c2nc(N)nc-2ccc2[nH]c(N)nc12
inactive: dose: 0.5 mg/kg/injection, schedule: Q01DX009 (ip), vehicle: Klucel (hydroxypropylcellulose) (HPC) 102 % of control | dose: 1.0 mg/kg/injection, schedule: Q01DX009 (ip), vehicle: Klucel (hydroxypropylcellulose) (HPC) 108 % of control | dose: 2.0 mg/kg/injection, schedule: Q01DX009 (ip), vehicle: Klucel (hydroxypropylcellulose) (HPC) 108 % of control | dose: 4.0 mg/kg/injection, schedule: Q01DX009 (ip), vehicle: Klucel (hydroxypropylcellulose) (HPC) 102 % of control

O=C(Nc1ccc(Cl)cc1)/C(Cl)=C1/Sc2ccccc2NC1=O
inactive: dose: 100.0 mg/kg/injection, schedule: Q01DX001 (ip), vehicle: saline with Tween-80 97 % of control | dose: 200.0 mg/kg/injection, schedule: Q01DX001 (ip), vehicle: saline with Tween-80 91 % of control | dose: 400.0 mg/kg/injection, schedule: Q01DX001 (ip), vehicle: saline with Tween-80 91 % of control

CC1CC(C)(C)N=C(CCC2CCCCCC2=O)O1 (stereo not drawn)
inactive: dose: 50.0 mg/kg/injection, schedule: Q04DX003 (ip), vehicle: saline with Tween-80 100 % of control | dose: 100.0 mg/kg/injection, schedule: Q04DX003 (ip), vehicle: saline with Tween-80 100 % of control | dose: 200.0 mg/kg/injection, schedule: Q04DX003 (ip), vehicle: saline with Tween-80 100 % of control

O=C(Nc1ccc(OCc2ccccc2)cc1)c1cc2c(cc1Br)OCO2
inactive: dose: 25.0 mg/kg/injection, schedule: Q01DX009 (ip), vehicle: other 106 % of control | dose: 50.0 mg/kg/injection, schedule: Q01DX009 (ip), vehicle: other 104 % of control | dose: 100.0 mg/kg/injection, schedule: Q01DX009 (ip), vehicle: other 106 % of control | dose: 200.0 mg/kg/injection, schedule: Q01DX009 (ip), vehicle: other 100 % of control | dose: 400.0 mg/kg/injection, schedule: Q01DX009 (ip), vehicle: other 100 % of control

O=C(O)C1CCCN1C(=O)OCc1ccccc1 (stereo not drawn)
inactive: [2] 87 % of control | [3] 89 % of control | dose: 400.0 mg/kg/injection, schedule: Q01DX005 (ip), vehicle: Klucel (hydroxypropylcellulose) (HPC) 91 % of control

CC12CCC3c4ccc(O)cc4CCC3C1C/C(=C\C(=O)O)C2=O (stereo not drawn)
inactive: dose: 3.13 mg/kg/injection, schedule: Q01DX009 (ip), vehicle: Klucel (hydroxypropylcellulose) (HPC) 104 % of control | [4] 111 % of control | [5] 108 % of control | [6] 111 % of control

CC1=Nc2ccc(Cl)cc2N=C(C)C1
inactive: [12] 106 % of control | [13] 107 % of control | [14] 100 % of control
